Results reported in patent US20140010939A1, “Sweetness Enhancers, Sweetener Compositions, Methods of Making the Same and Consumables Containing the Same” (Nutrinova Nutrition Specialties & Food Ingredients GmbH, priority 2011, published 2014).

Test system: control cell line without sweet receptor (HEKα15#17)
Assay: Control cell line without sweet receptor in the same calcium cell based assay
Protocol: For measurement of human T1R2/T1R3 taste receptor dependent activity a control cell line without sweet receptor based on HEK 293 and a cell line expressing the sweet receptor hT1R2/hT1R3 based on HEK 293, respectively, are seeded into assay plates and labelled with the calcium sensitive fluorescence dye Fluo4-AM in a culture medium. The potential modulators, e.g. the test compound, are added to the control cell line and to the cell line expressing the sweet receptor hT1R2/hT1R3, respectively.
A stable cell line based on HEK293 was termed HEKα15#17 served as control for functional Ga-protein and a stable cell line HEKGα15#17R2R3b#8 C6 served as cell line expressing the sweet receptor hT1R2/hT1R3 based on HEKGα15#17.
The cells were cultured in DMEM/HG and 10% FCS Gold, 4 mM L-Glutamin, 1,3 mg/ml Geneticin (HEKGα15#17) or the same medium additionally containing 6 μg/ml Blasticidin (HEKGα15#17R2R3b#8 C6). The medium for the assay was DMEM/HG (high glucose, 4.5 g/l glucose, Life Technologies) and 10% FCS Gold, 4 mM L-Glutamin (HEKGα15#17) or DMEM/LG (low glucose, 1 g/l glucose; Life Technologies) and 10% FCS Gold (HEKGα15#17R2R3b#8C6), respectively.
In order to evaluate the sweet receptor modulating activity of the compound of formula (Ia), compound of formula (Ia) was added to the cultures in a concentration of 25 μM in a volume of 50 μl. Controls were KH-buffer (Krebs HEPES-buffer: 118 mM NaCl, 4.7 mM KCl, 1.2 mM MgSO4, 1.2 mM KH2PO4, 4.2 mM NaHCO3, 1.3 mM CaCl2, 10 mM Hepes, pH 7.4) either without or with sweetness enhancer.
Further controls for function of G-protein and receptor were isoproterenol (1 μM, Sigma Aldrich), ionomycin (1 μM, Calbiochem) and ATP (1 μM, Applichem).
For measurement of human T1R2/T1R3 taste receptor dependent activity, on day 1 of the test procedure the HEKα15#17 cells (control cell line without sweet receptor) and the HEKGα15#17R2R3b#8 C6 cells (cell line expressing the sweet receptor hT1R2/hT1R3), respectively, were transferred to low-glucose medium.
On day 2 the cells were seeded into assay plates at a density of 25,000 cells/well. Assay plates for fluorescence measurement (black clear bottom 96-cavity plates, Greiner Bio-One) were coated with poly-D-lysine. For direct comparison both cell lines (control cell line without sweet receptor and cell line expressing the sweet receptor hT1R2/hT1R3) were seeded into different cavities of the same assay plate. The plate was placed into the incubator for 48 hours at 37° C., 5% CO2, 100% relative humidity.
On day 4 the calcium assay was performed. For this assay, the cells were marked with Fluo4-AM in medium and KH-buffer. To each cavity 100 μl KH-buffer/250 μM sulfinpyrazone/4 μM Fluo4-AM were added gently to 100 μl medium (final concentration of Fluo4-AM=2 μM, stock solution of Fluo4-AM 1 mM in DMSO, excitation at 485 nm, emission at 520 nm, Fisher Scientific, 58239 Schwerte, Germany).
The plate was placed into the incubator for 1 hour. In the mean time the test substances (“ligands”) were prepared in a separate plate (5 times concentrated, 150 μl/cavity, and then automatically 50 μl/cavity were transferred into the screening cell plate by pipetting robot (FLEX-station, Molecular Devices, Sunnyvale, Calif.).
The culture medium was carefully removed and 200 μl KH-buffer/250 μM sulfinpyrazone per cavity was added slowly. Cells were left in the FLEX-station for 20 minutes for adaptation, followed by measurement at 37° C.

[1] = control compounds 1 μM, FIG. 1 second to fourth bars

Row | Compound | Fluo4-AM fluorescence increase (activation of control cell line) [1] | further results
1 | Nc1ncnc2c1ncn2[C@@H]1O[C@H](COP(=O)(O)OP(=O)(O)OP(=O)(O)O)[C@@H](O)[C@H]1O [ATP] | activate both the control and the cell line expressing the sweet receptor hT1R2/hT1R3 | 
2 | O=C(CO)[C@@H](O)[C@H](O)[C@H](O)CO [fructose] |  | Fluo4-AM fluorescence increase (activation of control cell line) (KH buffer/fructose (20 mM), FIG. 1 fifth bar): does neither activate the control cell line
3 | C[C@H](CCC(=O)O)C[C@H](C)C[C@H](C)C(=O)/C=C(\O)[C@H](C)C[C@H](C)C/C=C/[C@@H](C)[C@@H](O)[C@@H](C)[C@@H](O)C[C@@H]1CC[C@@](C)([C@H]2CC[C@@](C)([C@@H](C)O)O2)O1 [ionomycin] | activate both the control and the cell line expressing the sweet receptor hT1R2/hT1R3 | 
4 | CC(C)NCC(O)c1ccc(O)c(O)c1 (centres unmarked) [isoproterenol] | activate both the control and the cell line expressing the sweet receptor hT1R2/hT1R3 | 
5 | O=S(=O)([O-])NC1CCCCC1.[Na+] [sodium cyclamate] |  | Fluo4-AM fluorescence increase (activation of control cell line) (sodium cyclamate 30 mM, control sweetener, FIG. 1 first bar): does not activate the control cell line
